Results as given in paper PMC6278385, “Preclinical Pharmacokinetics of C118P, a Novel Prodrug of Microtubules Inhibitor and Its Metabolite C118 in Mice, Rats, and Dogs” (Molecules, 2018).
Like-named read-outs stand apart in the source and are kept apart here. Each block holds one molecule with its values, some of them ahead of it.

How the values were obtained:
Whole blood/plasma ratio = type: in vitro ADME; conditions: in rat, incubation 30 min
Protocol: The ratio of C118P and C118 in blood and plasma was studied. The whole blood was obtained from healthy volunteer and was separated into two parts to obtain whole blood and plasma. Standard solution was added into whole blood and plasma to mimic the incurred sample. After incubation for 30 min, the whole blood was separated into two parts. One was frozen and thawed to obtain the homogenous whole blood and the other sample was centrifuged to obtain plasma. The samples were analyzed by the established LC-MS/MS method and the blood plasma ratio was calculated.

[1] = Tissue distribution in tumor bearing mice; type: in vivo, nude mice (BALB/cA) implanted with NCI-H460 tumor
Protocol: The nude mice (BALB/cA) implanted with NCI-H460 tumor were provided by Shanghai Institute of Materia Medica. A total of 36 mice were divided into 9 groups with four animals in each group. After fasting overnight with free access to water, the mice were treated with 75 mg/kg C118P by i.v. The blood samples were collected at 2, 10, 20, 40 min, 1, 2, 4, 8, 12 h after treatment and the mice were anaesthetized and decapitated to obtain the blood and tumor tissue. Blood, brain, muscle, ovary, and lung from mice in the PK study were collected at 10 min, 1, 4, and 12 h. Tissues were cleaned by absorbent filter paper to remove the blood. Bloods were centrifuged at 10,000× g for 5 min. Each tissue (0.2 g) was homogenized with 2 mL water. The plasma samples and the homogenates were then processed and determined by the method described above. The concentration was determined by the calibration curve and the actual concentration was corrected by multiplying by 10 according to the dilution times. […]
4. The distribution of CA4P and CA4 in tumor bearing mice.
The nude mice (BALB/cA) implanted with NCI-H460 tumor were provided by Shanghai institute of Materia Medica. A total of 36 mice were divided into 9 groups with 4 animals in each group.
After fasted overnight with free access to water, the mice were treated with 75 mg/kg CA4P by i.v.
The blood samples were collected at 2, 10, 20, 40 min, 1, 2, 4, 8, 12 h after treatment and the mice were anaesthetized and decapitated to obtain the blood and tumor tissue. All procedure are same as C118P in the main text. The concentration was determined by the calibration curve and the actual concentration was corrected by multiplying by 10 according to the dilution times.

[2] = Metabolic stability in liver microsomes; type: in vitro ADME, dog
Protocol: (§1) The in vitro metabolic stability of C118P and C118 were estimated in mice, rat, dog, monkey, and human liver microsomes (Research Institute for Liver Diseases Co. Ltd (Shanghai, China)). The incubation mixture contains C118P or C118, NADP (1.0 mM), G-6-P (10 mM), PDH (2 units/mL), MgCl2 (10 mM), and liver microsomes (mice, rats, dogs, monkeys, or humans, 1.0 mg protein/mL) in phosphate buffer. A total of 200 μL of the mixture was removed and quenched with 600 μL acetonitrile in an ice bath at 0, 15, 30, 60, 120, and 240 min after the addition of NADPH.
(§2) CLint, in vitro (the in vitro intrinsic clearance, Equation (1)) was calculated from the t1/2 of C118 disappearance, where Cprotein is the protein concentration during the incubation, and t1/2 was determined by the slope (k) of the log-linear regression analysis of the concentration versus time profiles; thus, t1/2 = ln2/k. […] The in vivo hepatic clearance (CLH, Equation (3)) was then calculated by using CLint and hepatic blood flow, Q ([…] mL·min^−1·kg^−1 in rats, dogs, monkey, and humans, respectively), in the well-stirred liver model disregarding all binding. The hepatic extraction ratio was calculated as CLH divided by Q. CLint, in vitro = (0.693/t1/2) × (1/Cprotein)(1) CLint = CLint, in vitro × (mg protein/g liver weight) × (gliver weight/kg body weight)(2) CLH = (Q × CLint)/(Q + CLint)(3)

[3] = Plasma protein binding by ultrafiltration; type: in vitro ADME, beagle dogs; conditions: beagle, dog plasma, read-out: fu (fraction unbound)
Protocol: (§3) Both C118P and C118 were stable in the plasma with EDTA as anticoagulant. The non-specific binding to the ultrafilter membrane was negligible. The extent of plasma protein binding was reported as a fraction unbound (fu, %) value which was calculated using the formula fu = PF/TC × 100%, where TC is test compound (C118P or C118) concentration in sample before ultrafiltration, and PF is the test compound concentration in the ultrafiltrate (Table 1).
(§4) Plasma protein binding of C118P and C118 were determined by ultrafiltration at four concentrations (C118P: 400, 4000, 40,000, and 400,000 ng/mL, C118: 20, 200, 2000, and 20,000 ng/mL) in pooled plasma from Sprague-Dawley rats, beagle dogs, and humans. Stock solutions of C118P and C118 dissolved in methanol were diluted with blank plasma to achieve the test concentrations (the methanol volume is less than 10% of the plasma). The plasma was incubated for 1 h in a water bath at 37 °C. The total concentration of C118P and C118 of spiked plasma (TC) was analyzed by previously described methods. Ultrafiltration was performed with activated high speed centrifugal tubes (Millipore, Burlington, MA, USA). Plasma samples (0.4 mL) were added to the upper layer of the high speed centrifugal tubes, and then centrifuged at 12,000 g for 10 min. The concentration of unbound C118P and C118 in filtrate (PF) was similarly determined by the previously described methods. The percentage of free fraction (fu) of C118P and C118 was calculated as follows: fu = (PF/TC) × 100%.

[4] = Metabolic stability in liver microsomes; type: in vitro ADME, rat
Protocol: as §1, §2

[5] = Plasma protein binding by ultrafiltration; type: in vitro ADME; conditions: human plasma, read-out: fu (fraction unbound)
Protocol: as §3, §4

[6] = 0.17 h after i.v. 75 mg/kg of C118P, n = 4
[7] = 0.17 h after i.v. 75 mg/kg of C118P, n = 4, in ng/g
[8] = 1 h after i.v. 75 mg/kg of C118P, n = 4
[9] = 4 h after i.v. 75 mg/kg of C118P, n = 4
[10] = 12 h after i.v. 75 mg/kg of C118P, n = 4
[11] = pooled plasma, C118 20,000 ng/mL

blood plasma ratio at 30 min (Whole blood/plasma ratio; whole blood and plasma): 1.05 | concentration in muscle [1, 6]: 15,202.5 ± 8814.7 | concentration in ovary [1, 6]: 26,723.8 ± 18,229.6 | concentration in Lung [1, 7]: 26,923.2 ± 4389.0 | concentration in Tumor [1, 7]: 14,563.3 ± 1989.9 | concentration in brain [1, 7]: 3562.8 ± 796.6 | concentration in Plasma ([1]; 0.17 h after i.v. 75 mg/kg of C118P, n = 4, in ng/mL): 26,048.0 ± 2429.7 | concentration in Lung [1, 8]: 1852.3 ± 929.3 | concentration in Plasma [1, 8]: 1730.0 ± 986.4 | concentration in Tumor [1, 8]: 12,998.1 ± 4132.3 | concentration in brain [1, 8]: 1250.7 ± 351.3 | concentration in muscle [1, 8]: 946.8 ± 390.6 | concentration in ovary [1, 8]: 3308.6 ± 2611.1 | concentration in Lung [1, 9]: 231.3 ± 181.7 | concentration in Plasma [1, 9]: 132.6 ± 56.8 | concentration in Tumor [1, 9]: 4969.8 ± 3414.7 | concentration in brain [1, 9]: 109.1 ± 22.0 | concentration in muscle [1, 9]: 136.4 ± 2.8 | concentration in Tumor [1, 10]: 1327.7 ± 1124.0 | CLint, in vitro ([2]; dog liver microsomes): 9.9 μL·min^−1·mg^−1 Protein | half-life ([2]; dog liver microsomes, 1.0 mg protein/mL, C118 disappearance): 70.1 min | CLint ([2]; dog, scaled from CLint, in vitro): 18.9 mL/min/kg | Extrapolated CLH ([2]; dog, well-stirred liver model): 12.8 mL/min/kg | fraction unbound at 1 h, 200 ng/mL ([3]; pooled plasma, C118 200 ng/mL): 0.058 ± 0.002 | fraction unbound at 1 h, 2000 ng/mL ([3]; pooled plasma, C118 2000 ng/mL): 0.062 ± 0.004 | fraction unbound at 1 h, 20000 ng/mL [3, 11]: 0.054 ± 0.004 | half-life ([4]; Sprague-Dawley, rat liver microsomes, 1.0 mg protein/mL, C118 disappearance): 10.3 min | CLint, in vitro ([4]; rat liver microsomes): 67.0 μL·min^−1·mg^−1 Protein | CLint ([4]; rat, scaled from CLint, in vitro): 115.3 mL/min/kg | Extrapolated CLH ([4]; rat, well-stirred liver model): 43.6 mL/min/kg | fraction unbound at 1 h, 200 ng/mL ([5]; pooled plasma, C118 200 ng/mL): 0.028 ± 0.002 | fraction unbound at 1 h, 2000 ng/mL ([5]; pooled plasma, C118 2000 ng/mL): 0.047 ± 0.002 | fraction unbound at 1 h, 20000 ng/mL [5, 11]: 0.038 ± 0.002
Structure (SMILES): COc1cc(OC)cc(-c2nc[nH]c2-c2ccc(OC)c(O)c2)c1 [C118]

Structure (SMILES): COc1cc(OC)cc(-c2nc[nH]c2-c2ccc(OC)c(OP(=O)([O-])[O-])c2)c1.[Na+].[Na+] [C118P]
blood plasma ratio at 30 min (Whole blood/plasma ratio): 0.8 | concentration in Lung [1, 6]: 130.2 ± 7.5 | concentration in Plasma [1, 6]: 5199.4 ± 2147.9 | concentration in Tumor [1, 6]: 115.8 ± 24.1 | concentration in muscle [1, 6]: 355.4 ± 64.1 | concentration in Plasma [1, 8]: 191.2 ± 60.5 | concentration in Tumor [1, 8]: 73.0 ± 15.0 | concentration in Plasma [1, 9]: 14.7 ± 8.4 | concentration in Tumor [1, 9]: 26.7 ± 0.0 | concentration in Plasma [1, 10]: 6.1 ± 0.0 | stability in liver microsomes ([2]; dog microsomes (Figure S1)): not stable | fraction unbound at 1 h, 400 ng/mL ([3]; C118P 400 ng/mL): 0.019 ± 0.001 | fraction unbound at 1 h, 4000 ng/mL ([3]; C118P 4000 ng/mL): 0.021 ± 0.001 | fraction unbound at 1 h, 40000 ng/mL ([3]; C118P 40,000 ng/mL): 0.027 ± 0.002 | fraction unbound at 1 h, 400000 ng/mL ([3]; C118P 400,000 ng/mL): 0.086 ± 0.003 | stability in liver microsomes ([4]; rat liver microsomes (Figure S1)): quite stable | fraction unbound at 1 h, 400 ng/mL ([5]; C118P 400 ng/mL): 0.022 ± 0.001 | fraction unbound at 1 h, 4000 ng/mL ([5]; C118P 4000 ng/mL): 0.027 | fraction unbound at 1 h, 40000 ng/mL ([5]; C118P 40,000 ng/mL): 0.022 ± 0.001 | fraction unbound at 1 h, 400000 ng/mL ([5]; C118P 400,000 ng/mL): 0.057 ± 0.004
